Measurements as given in patent publication US20150164946A1, “Thrush Treatment Paste” (priority 2013, published 2015).

Conditions: copper sulfate concentration up to 70% (weight percent) in the composition, applied to horse hoofs

## O=S(=O)([O-])[O-].[Cu+2] [copper sulfate]
  harmfulness in this usage (topical hoof thrush treatment): not be harmful
